Consider 3 molecules from patent US20140227191A1, “L-GLUTAMIC ACID AND L-GLUTAMINE DERIVATIVE (III), USE THEREOF AND METHOD FOR OBTAINING THEM” (BAYER SCHERING PHARMA AKTIENGESELLSCHAFT, priority 2008, published 2014).

The test relates to A549 cells (human Non Small Cell Lung Cancer). In words: cytotoxicity assay with A549 cells using standard Alamar Blue Assay. As to conditions: for cell vitality: A549 cells, 48 h incubation, Alamar Blue, versus control cells, L-Glutamate at 2 mM.

pEC50: −log10 of the molar value. Structures can show the parent of a compound that is named as a salt.

Experimental: A Dulbecco's modified Eagle's Medium (Sigma D0422), supplemented with Glutamine and 10% foetal calf serum (FCS) were used as incubation buffer. The cells were incubated for 48 h with test compounds and investigated according to manufacturer's protocol.
Afterwards, cell vitality was measured with the Alamar Blue assay kit as described above.

Regarding `N[C@@H](CCC(=O)O)C(=O)O` [L-Glutamate, reference compound], the cell vitality result is “no differences in cell vitality”.

As for `N[C@@H](C[C@H](Cc1cc(C(F)(F)F)ccc1F)C(=O)O)C(=O)O` [Example 5, Neutral sodium salt of (2S,4S)-2-Amino-4-(2-fluoro-5-trifluoromethyl-benzyl)-pentane dioic acid], the cell vitality entry is reported as “strong decrease of the cell vitality”.

Regarding `N[C@@H](C[C@H](CCCF)C(=O)O)C(=O)O` [Example 1], the cell vitality entry was “strong decrease of the cell vitality”. The pEC50 (Homo sapiens, A549, read-out: EC50 (cell vitality)) was about 4.42.
